Experimental data taken from patent US9862678B2, “3,4-diaminobenzenesulfonamide derivatives for inhibiting cell death” (VIB VZW, priority 2014, dated 2018).

Assays:
[1] = Kinetic solubility (turbidity); type: physicochemical; conditions: kinetic solubility by turbidity, test range 3.125 μM to 200 μM, 10 mM PBS pH 7.4
Method: (§1) Unless otherwise stated, laboratory reagent grade solvents were used. Reagents were obtained from Sigma-Aldrich, Acros Organics or Fluorochem and were used without further purification. Characterization of all compounds was done with ^1H and ^13C NMR and mass spectrometry. ^1H and ^13C NMR spectra were recorded on a 400 MHz Bruker Avance III Nanobay spectrometer with Ultrashield and analyzed by use of MestReNova analytical chemistry software. Chemical shifts are in ppm, and coupling constants are in hertz (Hz). ES mass spectra were obtained from an Esquire 3000 plus ion trap mass spectrometer from Bruker Daltonics. Purities were determined with two diverse HPLC systems based either on mass determination or on UV detection. A Waters acquity UPLC system coupled to a Waters TQD ESI mass spectrometer or a Waters SQD ESI mass spectrometer was used both in combination with a Waters TUV detector. Water (A) and CH3CN (B) were used as eluents. LC-MS spectra were recorded on an Agilent 1100 series HPLC system using a Alltech Prevail C18 column (2.1 mm×50 mm, 3 μm) coupled with an Esquire 3000 plus as MS detector, and a “method A” 5-100% B, 20 min gradient was used with a flow rate of 0.2 mL/min. Formic acid, 0.1%, was added to solvents A and B. Waters Acquity UPLC BEH C18 1.7 μm, 2.1 mm×50 mm column was used. Solvent A consisted of water with 0.1% formic acid. Solvent B consisted of acetonitrile with 0.1% formic acid. Method I involved the following: 0.15 min 95% A, 5% B, then in 1.85 min from 95% A, 5% B to 95% B, 5% A, then 0.25 min (0.350 mL/min), 95% B, 5% A. The wavelength for UV detection was 254 nm. Method II involved the following: flow 0.4 mL/min, 0.25 min 95% A, 5% B, then in 4.75 min to 95% B, 5% A, then 0.25 min 95% B, 5% A, followed by 0.75 min 95% A, 5% B. The wavelength for UV detection was 214 nm. Where necessary, flash purification was performed on a Biotage ISOLERA One flash system equipped with an internal variable dual wavelength diode array detector (200-400 nm). For normal phase purifications SNAP cartridges (10-340 g, flow rate of 10-100 mL/min) were used, and reversed phase purifications were done making use of KP-C18 containing cartridges. Dry sample loading was done by self-packing samplet cartridges using silica and Celite 545, respectively, for normal and reversed phase purifications. Gradients used varied for each purification. Mouse and rat plasma came from Innovative Research. The turbidity in the kinetic solubility experiments was measured using the UV/vis spectrophotometer Synergy MX, Biotek with Gen5.

[2] = tested on: IMR-32 neuroblastoma cell line; assay: Inhibition of erastin-induced ferroptosis in IMR-32 cells (Sytox Green cell death readout); type: cell-based; conditions: Homo sapiens; inhibiting ferroptosis in the IMR-32 neuroblastoma cell line stimulated with 10 μM erastin; compounds 1 nM to 1 μM, triplicate
Method: In the present disclosure, the potency of a compound inhibiting (or reducing) ferroptosis and/or oxytosis are determined in in vitro or in vivo assays. Typically in vitro assays are used to measure the potency of a candidate compound. Examples of suitable in vitro assays are cellular assays. One non-limiting example of an assay involves the use of the IMR-32 neuroblastoma cell line. The latter is stimulated to enter into ferroptosis upon stimulation with 10 μM erastin, a documented ferroptosis inducer (see, for example, Dixon et al. (2012) Cell 149, 1060-1072, and ferroptosis inhibitors are evaluated for the prevention of erastin-induced ferroptosis. Yet another assay is based the glutamate-induced cell death in the hippocampal cell line HT22 and ferroptosis/oxytosis inhibitors are evaluated for the prevention of cell death (see N. Henke et al. (2013) Cell Death and Disease 4, e470). Still another assay is based on the sorafinib-induced cell death (described to be iron dependent cell death) in hepatocellular carcinoma cells and ferroptosis inhibitors are evaluated for the prevention of cell death (see C. Louandre et al. (2013) Int. J. Cancer 133, 1732). The calculated potency of a compound inhibiting ferroptosis and/or oxytosis is typically depicted as an IC50 value. Examples of suitable in vivo assays are typically pre-clinical disease models of, for example, mice for the diseases benefiting the application of ferroptosis and/or oxytosis inhibitors, as described herein. One non-limiting example of an in vivo assay is based on inducing liver damage in mice by administering the herbicide diquat dibromide monohydrate and ferroptosis inhibitors are evaluated based on reduced levels of liver transaminases in serum (see Q. Ran et al. (2004) J. Biol. Chem. 279, 53, 55137).
The IC50 values for the individual compounds of the disclosure were determined in the neuroblastoma, IMR-32 cell line. In brief, IMR-32 cells were subjected to 10 μM erastin, the latter compound is known to induce ferroptosis. A concentration gradient (ranging from 1 nM to 1 μM) of the compounds was applied to the cells. These experiments were performed in a 96-well format (in triplicate), and cell death was analyzed in a fluorescent plate reader by use of a fluorescent cell death dye (1.5 μM Sytox Green). The IC50 values depicted in Table 1 are the concentration values for the individual compounds which are able to overcome ferroptosis.

[3] = Plasma stability, human plasma; type: in vitro ADME; conditions: for recovery at 6 h: human
Method: Thereto the metabolism by murine and human microsomes of representative compounds of the disclosure was measured. […] In addition, the plasma stability in murine and human plasma was measured. The percentage of remaining compounds was measured by LC-MS.

[4] = Microsomal stability, murine microsomes
Method: (§2) In a next step a subset of compounds was subjected to ADME analysis. Thereto the metabolism by murine and human microsomes of representative compounds of the disclosure was measured. The compound ferrostatin-1 (Fer-1, described in S. J. Dixon et al. (2012) Cell 149, 1060-1072), originally described to inhibit ferroptosis, was used a control. In addition, the plasma stability in murine and human plasma was measured. The percentage of remaining compounds was measured by LC-MS.

[5] = Microsomal stability, human microsomes
Method: as §2

[6] = Plasma stability, murine plasma; type: in vitro ADME, mouse; conditions: for recovery at 6 h: mouse
Method: as §1

[7] = aqueous buffer, kinetic from dmso stock
[8] = mouse microsomes (CYP450 and other NADPH-dependent enzymes)
[9] = human microsomes (CYP450 and other NADPH-dependent enzymes)

Structure (SMILES)	solubility [1, 7] [µM]	recovery at 6 h [3] [%]	recovery at 6 h [6] [%]	IC50 [2] [nM]	other results
CCNS(=O)(=O)c1ccc(NC2CCCCC2)c(NCc2ccccc2)c1 [Compound 37, 3-(benzylamino)-4-(cyclohexylamino)-N-ethylbenzenesulfonamide]	12.5 to 25	100	98.6	4	Microsomal stability Half-life (t1/2) (min) Mouse ([4]; mouse, microsomes): 187 ± 41 min; Microsomal stability Half-life (t1/2) (min) Human ([5]; human, microsomes): 88 ± 16 min
CCNS(=O)(=O)c1ccc(NC2CCCCC2)c(NCc2cncnc2)c1 [Compound 39, 4-(cyclohexylamino)-N-ethyl-3-((pyrimidin-5-ylmethyl)amino)benzenesulfonamide]	100 to 200			187	
Nc1cc(S(=O)(=O)N2CCOCC2)ccc1NC1CCCCC1 [Compound 32, N1-cyclohexyl-4-(morpholinosulfonyl)benzene-1,2-diamine]	> 200			208	
CCOC(=O)c1ccc(NC2CCCCC2)c(N)c1 [Fer-1, ferrostatin-1, reference compound]					solubility [1]: >200 µM; Plasma stability % recovery after 6 h Human ([3]; human plasma, 6 h, percentage of remaining parent compound, LC-MS): 100%; Microsomal stability Half-life (t1/2) (min) Mouse [4, 8]: 1.9 ± 0.6 min; Microsomal stability Half-life (t1/2) (min) Human [5, 9]: 6.9 ± 0.2 min; Plasma stability % recovery after 6 h Mouse ([6]; mouse plasma, 6 h, percentage of remaining parent compound, LC-MS): 0%
CN1CCN(S(=O)(=O)c2ccc(NC3CCCCC3)c(N)c2)CC1 [Compound 31, N1-cyclohexyl-4-((4-methylpiperazin-1-yl)sulfonyl)benzene-1,2-diamine]	> 200			206	
CCNS(=O)(=O)c1ccc(NC2CCCCC2)c(N)c1 [Compound 22, 3-amino-4-(cyclohexylamino)-N-ethylbenzenesulfonamide]	12.5 to 25	81.9	86.2	67	Microsomal stability Half-life (t1/2) (min) Mouse ([4]; mouse, microsomes): 31 ± 5 min; Microsomal stability Half-life (t1/2) (min) Human ([5]; human, microsomes): 37 ± 3 min

The next lines start with results.

solubility [1, 7] [µM]	recovery at 6 h [3] [%]	recovery at 6 h [6] [%]	Structure (SMILES)	IC50 [2] [nM]	other results
100 to 200			O=S(=O)(NCCO)c1ccc(NC2CCCCC2)c(NCc2ccccc2)c1 [Compound 58, 3-(benzylamino)-4-(cyclohexylamino)-N-(2-hydroxyethyl)benzenesulfonamide]	14	
12.5 to 25	100	100	CCNS(=O)(=O)c1ccc(NC2C3CC4CC(C3)CC2C4)c(NCc2ccncc2)c1 (centres unmarked) [Compound 45, 4-(adamantan-2-ylamino)-N-ethyl-3-((pyridin-4-ylmethyl)amino)benzenesulfonamide]	3.9	Microsomal stability Half-life (t1/2) (min) Mouse [4, 8]: 26 ± 5 min; Microsomal stability Half-life (t1/2) (min) Human [5, 9]: 64 ± 10 min
25 to 50			O=S(=O)(c1ccc(NC2CCCCC2)c(NCc2ccccc2)c1)N1CCOCC1 [Compound 57, N2-benzyl-N1-cyclohexyl-4-(morpholinosulfonyl)benzene-1,2-diamine]	30	
12.5 to 25	100	99.4	CCNS(=O)(=O)c1ccc(NC2C3CC4CC(C3)CC2C4)c(NCc2ccccc2)c1 (centres unmarked) [Compound 44, 4-(adamantan-2-ylamino)-3-(benzylamino)-N-ethylbenzenesulfonamide]	3.5	Microsomal stability Half-life (t1/2) (min) Mouse ([4]; mouse, microsomes): 31 ± 6 min; Microsomal stability Half-life (t1/2) (min) Human ([5]; human, microsomes): 36 ± 11 min
25 to 50			CN1CCN(S(=O)(=O)c2ccc(NC3CCCCC3)c(NCc3ccccc3)c2)CC1 [Compound 56, N2-benzyl-N1-cyclohexyl-4-((4-methylpiperazin-1-yl)sulfonyl)benzene-1,2-diamine]	33	
